In one data set the test system is OCILy10 xenografts. Description: CIVO arrayed microinjection, OCILy10 xenograft, cleaved caspase 3. In kind it is in vivo, Nu/Nu mice. The method, then:
(§1) Anesthetized Nu/Nu mice harboring xenografted tumors were injected with multiple individual compounds or compound combinations, simultaneously, each into a distinct location of the tumor. Precise, controlled delivery of the compounds was evaluated for spatially defined and cellular changes around sites of tumor microinjection across xenograft models of DLBCL. Tumors were resected and injection quality was assessed by IVIS imaging of co-injected near-infrared tracking dye. Sections from representative regions down the z-axis of the tumor were prepared for staining with biomarkers of pathway inhibition and tumor response. Samples were then batch scanned in a Caliper Pannoramic slide scanner, resulting in high resolution images compatible with single cell analysis and subsequent data quantification via Presage's CIVO™ analyzer custom image analysis platform (for technology description, see R. Klinghoffer et al, AACR, 2014 and Presagebio.com).
In order to evaluate combination treatment with Compound 1, Compound A and Compound AA, mice with OCILy10 xenografts were treated systemically with Compound A 30 mpk QD×4 followed by Compound A 30 mpk and Compound 110 mpk QD×3. At 3 hours after the 7th systemic dose, Compound AA (15.4 μg in 4 μL injected) was injected locally at three sites. […]

Data set [1] relates to SUDHL4 (DLBCL) xenografts. Description: CIVO arrayed microinjection, SUDHL4 xenograft, cleaved caspase 3. In kind it is in vivo, Nu/Nu mice. As to conditions: systemic Compound A 30 mpk QD×8 -/+ dexamethasone 5 mpk, local Compound 2 13 μg in 4 μL. The protocol: as §1
In order to evaluate combination effects of Compound A with other compounds in the DLBCL model SUDHL4, vehicle or Compound A (30 mpk QD×8)−/+ dexamethasone (5 mpk QD×8) was given systemically. […] Apoptosis was evaluated by measurement of the apoptosis marker, cleaved caspase 3 (CC3), which was plotted as a function of distance from the injection site.

A further data set has as its system WSU-DLCL2 xenograft. Nature of the data set: DLBCL xenograft model (WSU-DLCL2). In kind it is in vivo, SCID mice. To be noted: combination study. The method, then: Severe combined immunodeficiency (SCID) mice were implanted with human DLBCL cell line (WSU-DLCL2) into the flank. Treatment of compounds started between Day 11 and Day 14 after cell inoculation. Randomized groups of mice (n=9 to 10/group) were treated with the single agents (Compound 1, Compound A or Compound AA) or the combination of Compound 1/Compound A, Compound A/Compound AA, or Compound 1/Compound AA. Compounds were administered orally on a once daily (Compound 1 and Compound A) or twice daily […] schedule for 21 days. The positive control consisted of CHOP therapy (combination of cyclophosphamide, doxorubicin, vincristine and prednisone). Compound 1 and Compound A were formulated in CMC-Tween (carboxymethylcellulose/Tween 80/deionized water). Compound AA was suspended in DSP (dimethylsulphoxide/solutol/phosphate buffered saline).
Initial studies were conducted in order to determine the antitumor activity of Compound 1 and to identify a dose level for the combination studies. In the WSU-DLCL2 xenograft model, Compound 1 inhibited tumor growth in a dose-dependent fashion. […] In a subsequent combination study, Compound 1 was dosed at 10 mg/kg, once daily (QD). Compound A and Compound AA were dosed at 30 mg/kg (QD) and 50 mg/kg (BID), respectively.

In a further data set the test system is OCI-Ly10 xenograft. Nature of the data set: OCI-Ly10 DLBCL xenograft model. The format is in vivo, SCID mice. An excerpt: OCI-Ly10 cells are derived from a diffuse-large B-cell lymphoma, a type of non-Hodgkins lymphoma. Female SCID mice (Fox Chase SCID®, CB 17/Icr-Prkdcscid, Charles River), characterized by severe combined T and B cell immunodeficiency, were 10 weeks old, with body weights ranging from 15.4 to 24.2 g, on Day 1 of this study. In brief, female CB.17 SCID mice were inoculated with 5×10^6 OCI-Ly10 cells subcutaneously, and tumors were allowed to grow to approximately 100-150 mm^3 before stratification into treatment groups, so as to yield groups with comparably sized tumors prior to treatment. In addition to the efficacy treatment groups, some mice were stratified into short-term treatment groups and their tumors were collected 4 hours post final dosing in groups that received saline, 30 mg/kg or 10 mg/kg Compound A, or 3 mg/kg Compound 1 once daily for seven days, starting on day 27. Frozen, and fixed paraffin-embedded, samples were analyzed. In the efficacy arm of the study, dosing began on Day 1 (D1) in 12 groups of mice (n=10/group) with established subcutaneous tumors (mean volumes, 120-129 mm^3). Compound A (at two dose levels) and Compound 1 (at one dose level) were each administered once daily for 28 days (qd×28). Control mice received the vehicle, 5% DMSO/15% Solutol® HS15/80% PBS, p.o. b.i.d.×28. On D29 a 21-day dosing extension, from day 33 to day 53, in the control and five test groups was implemented, resulting in b.i.d.×28/4/21 or qd×28/4/21 schedules for these groups.
Tumors were calipered twice weekly, and each mouse in the efficacy study was euthanized when its tumor reached the 1000 mm^3 volume endpoint, or on day 61, whichever came first. Efficacy was determined from tumor growth delay (TGD), defined as the increase in the median time-to-endpoint (TTE) in drug-treated (T) versus vehicle-treated (C) mice, and from the significance of survival extension.

Where [2] appears, read: 28-day schedule: Compound A 30 mg/kg qd×28, alone or with Compound 1.
Setting [3] is: extended schedule qd×28/4/21: Compound A 10 mg/kg, Compound 1 3 mg/kg, alone or combined.

The text below walks through data of patent US9474757B2, “Methods for treating cancer using TOR kinase inhibitor combination therapy” (Signal Pharmaceuticals, LLC, priority 2013, dated 2016).

With `Cc1nc2cccc(N)c2c(=O)n1C1CCC(=O)NC1=O` (centres unmarked) [Compound A, 3-(5-Amino-2-methyl-4-oxoquinazolin-3(4H)-yl)-piperidine-2,6-dione], in the data set with OCILy10 xenografts (systemic Compound A 30 mpk, with or without Compound 1 10 mpk, local Compound AA), the “cell death (CC3 positive sites) at Compound AA injection sites” value was “did not lead to cell death”. The CC3 positive sites in the data set with OCILy10 xenografts (systemic dose, local injection of Compound AA 15.4 μg in 4 μL, total sites 18 and 26) came out at 0. Besides, in data set [1], the “apoptosis (cleaved caspase 3) induced by local treatment with Compound 2” value is given as “enhanced induction of apoptosis”. Also, the “apoptosis (cleaved caspase 3) induced by local treatment with Compound 2” value in data set [1] (listed as compound A) is given as “enhanced cell death”. The “decrease in tumor volume (TVR) vs vehicle” value with WSU-DLCL2 xenograft (Day 34, Compound 1 10 mg/kg QD, Compound A 30 mg/kg QD, Compound AA 50 mg/kg BID, oral) was determined as 30%. Moreover, the body weight loss result in the data set on WSU-DLCL2 xenograft (single agents or in combination) is listed as “No significant body weight loss”. Moreover, in the data set with OCI-Ly10 xenograft (28-day schedule: Compound A 30 mg/kg qd×28), the “tumor growth delay (TGD), %” value stood at 88%. Moreover, in the data set with OCI-Ly10 xenograft (setting [2]), the PRs entry is listed as “two”, the “survivors (n=10/group)” value was “seven” and the “tumor growth delay (TGD)” value is 28.6 days. The “tumor growth delay (TGD), %” value with OCI-Ly10 xenograft (extended schedule qd×28/4/21: Compound A 10 mg/kg, Compound 1 3 mg/kg) was found to be 27%. Further, in the data set on OCI-Ly10 xenograft (setting [3]), the PRs / regressions result is “no regressions”, the “survivors (n=10/group)” value is recorded as “three” and the “tumor growth delay (TGD)” value came out at 8.9 days.
